Test results taken from article PMC8733726, “Dioctanoyl Ultrashort Tetrabasic β-Peptides Sensitize Multidrug-Resistant Gram-Negative Bacteria to Novobiocin and Rifampicin” (Frontiers in Microbiology, 2021).
Converted amounts (≈) assume the structure as drawn. Read-outs that look alike come from different tables or passages of the source.

What was measured:
[1] = Cell viability assay; assay type: cell-based; details: human
Method: (§1) Cell viability assay was performed essentially as previously described ([[…] et al., 2019]). […] The cells were detached with trypsin and equal numbers of cells (8,000 cells in 50 μL) were dispersed into five rows of each column in 96-well plate; the remaining three rows of each column, designated as blanks, received 50 μL of the media without cells. After 24 h incubation, aliquots of 50 μL of dUSTBβP 3 at varying concentrations were added to each well and incubated for 48 h. […] Values from the wells without cells (blank wells) were subtracted from the corresponding sample wells and cell viability values of the treated samples relative to the vehicle controls set to 100% was determined. […] The results represent the mean ± SD of two independent experiments with five samples per experiment. […] Colistin was used as a negative control and doxorubicin, an anticancer drug, was used as a positive control.

[2] = in vitro; assay type: cell-based; details: human
Method: as §1

[3] = tested on: A. baumannii ATCC 17978; assay type: cell-based, Acinetobacter baumannii; details: not told
Method: (§2) The ability of dUSTBβP 3 to permeabilize the OM of Acinetobacter baumannii ATCC 17978 and Escherichia coli ATCC 25922 was assessed using 1-N-phenylnaphthylamine (NPN) as previously described with minor modifications ([Yang et al., 2017]; [Akhoundsadegh et al., 2019]). Overnight grown culture was subcultured (1 in 100) in fresh LB broth and grown to a mid-logarithmic phase (OD600 = 0.4–0.6). […] NPN (10 μM final concentration) was added to a black 96-well plate containing the cell culture and incubated in 5 mM HEPES (pH 7.2) supplemented with 5 mM glucose and 5 μM carbonyl cyanide 3-chlorophenylhydrazone at room temperature for 30 min in darkness. Varying concentrations of compound were added onto the suspension, and the resulting change in NPN fluorescence was measured continuously (every 30 s) on a SpectraMax M2 microplate reader (Molecular Devices, United States) at an excitation wavelength of 350 nm and an emission wavelength of 420 nm. Cells with NPN and the OM permeabilizer PMBN served as a positive control, while cells with NPN alone served as a negative control. Three replicates were conducted, and the data were corrected for any background fluorescence.

[4] = tested on: E. coli ATCC 25922; assay type: cell-based, Escherichia coli; details: not told
Method: as §2

[5] = tested on: wild-type P. aeruginosa PAO1; assay: microbe, parasite or virus in culture; assay type: cell-based, Pseudomonas aeruginosa; details: PAO1
How it was run: (§3)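 Checkerboard in MHB with 5 × 10^5 CFU/mL inoculum, antibiotic and adjuvant each serially 2-fold diluted on crossed axes. Growth read as turbidity at 590 nm; FICI is the sum of each agent's MIC in combination divided by its MIC alone.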

[6] = tested on: MDR clinical isolates of P. aeruginosa; assay: Checkerboard assay, MDR clinical isolates; assay type: cell-based, Pseudomonas aeruginosa; details: antibiotic alone
Method: (§4) The adjuvant activities of dUSTBβPs were evaluated using checkerboard assay as previously described ([Berry et al., 2019]). Overnight-grown bacterial culture diluted in saline to 0.5 McFarland turbidity was successively diluted 1:50 in MHB to achieve a final concentration of 5 × 10^5 CFU/mL for inoculation. The antibiotic and adjuvant were serially diluted 2-fold along the x-axis and y-axis, respectively, resulting in varying concentrations of both agents in each well. Subsequently, the 96-well plate was incubated with equal volumes of bacterial inoculum at 37°C for 18 h. Confirmation of turbidity was done using an EMax Plus microplate reader (Molecular Devices, United States) at a wavelength of 590 nm. Wells comprising MHB alone or in the presence of bacterial cells were used as negative or positive controls, respectively. Fractional inhibitory concentration index (FICI) is determined by adding the FICs of both antibiotic and adjuvant. The FIC of the antibiotic is calculated by dividing the MIC of the antibiotic in the presence of the adjuvant by the MIC of the antibiotic alone. Similarly, the FIC of the adjuvant is calculated by dividing the MIC of the adjuvant in the presence of the antibiotic by the MIC of the adjuvant alone. FICI ≤ 0.5, 0.5 < x ≤ 4, and >4 were deemed synergistic, additive, and antagonistic, respectively ([Meletiadis et al., 2010]).

[7] = tested on: MDR E. coli; assay type: cell-based, Escherichia coli; details: antibiotic alone
Method: as §4

[8] = tested on: MDR clinical isolates of A. baumannii; assay type: cell-based, Acinetobacter baumannii; details: antibiotic alone
Method: as §4

[9] = tested on: wild-type A. baumannii ATCC 17978; assay: Checkerboard assay; assay type: cell-based, Acinetobacter baumannii; details: ATCC 17978
How it was run: as §3

[10] = tested on: MDR K. pneumoniae; assay type: cell-based, Klebsiella pneumoniae; details: antibiotic alone
Method: as §4

[11] = tested on: wild-type A. baumannii ATCC 17978; assay: Time-kill assay; assay type: cell-based, Acinetobacter baumannii; details: 32 μg/mL novobiocin or 0.5 μg/mL rifampicin alone
Method: (§5) Overnight-grown bacterial culture diluted in PBS to 0.5 McFarland turbidity was successively diluted 1:50 in lysogeny broth (LB). Cell cultures in the presence of dUSTBβP 3, novobiocin, or rifampicin, or combinations of adjuvant and antibiotic were incubated at 37°C. At designated intervals, 100 μL aliquots acquired from each culture tube were serially diluted in PBS and plated on LB agar plates.

[12] = tested on: MDR A. baumannii 110193; assay: Time-kill assay; assay type: cell-based, Acinetobacter baumannii; details: 32 μg/mL novobiocin or 0.5 μg/mL rifampicin alone
Method: as §5

[13] = tested on: MDR E. cloacae; assay: Checkerboard assay, MDR clinical isolates; assay type: cell-based, Enterobacter cloacae; details: antibiotic alone
Method: as §4

[14] = tested on: wild-type E. coli ATCC 25922; assay: microbe, parasite or virus in culture; assay type: cell-based, Escherichia coli; details: ATCC 25922
How it was run: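 Overnight cultures were adjusted to 0.5 McFarland, then diluted to 5 × 10^5 CFU/mL in MHB. They were added to crossed 2-fold dilutions of antibiotic and adjuvant and incubated 18 h at 37°C. MICs came from OD590, and an FICI ≤ 0.5 was taken as synergy.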

[15] = antibiotic with dUSTBβP 3 at 8 μg/mL

COc1cccc2c1C(=O)c1c(O)c3c(c(O)c1C2=O)C[C@@](O)(C(=O)CO)C[C@@H]3O[C@H]1C[C@H](N)[C@H](O)[C@H](C)O1 [doxorubicin]
CC50 at 48 h [1]: 32 nM
viability at 48 h, 1 µM [2]: 16.6 ± 2.3%

polymyxin B nonapeptide [PMBN]
OM permeabilization, NPN fluorescence [3]: increased fluorescence of NPN
OM permeabilization, NPN fluorescence [4]: increased fluorescence of NPN

CO[C@H]1/C=C/O[C@@]2(C)Oc3c(C)c(O)c4c(O)c(c(/C=N/N5CCN(C)CC5)c(O)c4c3C2=O)NC(=O)/C(C)=C\C=C\[C@H](C)[C@H](O)[C@@H](C)[C@@H](O)[C@@H](C)[C@H](OC(C)=O)[C@@H]1C [Rifampicin]
MICantibiotic ([5]; antibiotic alone): 16 µg/mL
MICcombo [5, 15]: 0.25 µg/mL
MIC ([5]; Pseudomonas aeruginosa, 18 h, antibiotic alone (Supplementary Table 7), read-out: MICantibiotic): 16 µg/mL (≈ 19.4 µM)
MICantibiotic ([6]; PA259-96196): 16 µg/mL
MICantibiotic ([6]; PA262-101856): 512 µg/mL
MICantibiotic ([6]; PA264-104354): 16 µg/mL
MICantibiotic ([6]; PA91433): 16 µg/mL
MICantibiotic ([6]; PA114228): 16 µg/mL
MICantibiotic [7]; 94393: 8 µg/mL
MICantibiotic [7]; 94474: 8 µg/mL
MICantibiotic [7]; 107115: 32 µg/mL
MICantibiotic [8]; 92247: 2 µg/mL
MICantibiotic [8]; 110193: 1 µg/mL
MICantibiotic ([8]; AB027): 1 µg/mL
MICantibiotic ([8]; AB031): 1 µg/mL
MICantibiotic ([8]; LAC-4): 0.5 µg/mL
MICantibiotic ([9]; antibiotic alone): 2 µg/mL
MICcombo [9, 15]: 0.008 µg/mL
MIC ([9]; Acinetobacter baumannii, ATCC17978, 18 h, antibiotic alone (Supplementary Table 7), read-out: MICantibiotic): 2 µg/mL
MICantibiotic [10]; 113250: 32 µg/mL
MICantibiotic [10]; 113254: 8 µg/mL
MICantibiotic [10]; 116381: > 256 µg/mL
MICantibiotic ([10]; 116381, listed as rifampicin): 512 µg/mL
Time-kill outcome [11]: Bacteriostatic
Time-kill outcome [12]: Bacteriostatic
MICantibiotic [13]; 117029: 8 µg/mL
MICantibiotic [13]; 118564: 8 µg/mL
MICantibiotic [13]; 121187: 2 µg/mL
MICantibiotic ([14]; antibiotic alone): 4 µg/mL
MICcombo [14, 15]: 0.008 µg/mL
MIC ([14]; Escherichia coli, ATCC25922, 18 h, antibiotic alone (Supplementary Table 7), read-out: MICantibiotic): 4 µg/mL
